According to patent US20240325550A1, “Therapeutic Compounds for Inhibiting and Reducing the Expression of Cell Surface Proteins” (KIST (Korea Institute of Science and Technology), priority 2023, published 2024):
{DBCO} = dibenzocyclooctyne group for click conjugation; d = 2'-deoxy (DNA); r = 2'-OH (RNA)

Experiments:
[1] = biological target: T1, EGFR expressed by A549 cells (Homo sapiens, UniProt P00533); test: Binding of YOYO-1-stained conjugate to EGFR on A549 cells (microscopy); settings: 200 nM, 30 minutes
T1 construct: EGFR expressed by A549 cells; endogenous in cells; host or cells: A549 cells
Method: (§1) We tested whether the EGFR binding peptide-siRNA conjugate of Example 6 was able to specifically bind EGFR expressed by A549 cells by incubating the EGFR binding peptide-siRNA conjugate of Example 6 with A549 cells. As a control, A549 cells were incubated with the unconjugated anti-EGFR siRNA of Example 6.
A549 cells were treated with 200 nM of either the EGFR-binding peptide-conjugated siRNA of Example 6 or the unconjugated EGFR siRNA of Example 6, each stained with YOYO-1, a nucleic acid staining dye.
After 30 minutes, cells were then fixated with 4% paraformaldehyde (PFA) for 10 minutes, then washed twice with DPBS. Nuclei were then stained using Hoechst 33342 and the cells were examined for YOYO-1 staining.

B16F10 cells = test: Internalization by B16F10 cells (Cy5.5 fluorescence microscopy); assay type: cell-based; settings: 18 hours and 24 hours of incubation
Method: B16F10 cells were also incubated with either the PD-L1 binding peptide-siRNA conjugate of Example 1 or the unconjugated Cy5.5-labeled siRNA of Example 1 and similarly fixated after 18 hours and 24 hours of incubation.
(§2) Nuclei were stained using Hoechst 33342 (blue of FIGS. 3 and 4) and the cells were examined for Cy5.5 fluorescence (red of FIGS. 3 and 4).

CT26.CL25 cells = test: Internalization by CT26.CL25 cells (Cy5.5 fluorescence microscopy); assay type: cell-based; settings: 9 hours, 18 hours and 24 hours of incubation
Method: CT26.CL25 cells were incubated, as described in Example 2, with either the PD-L1 binding peptide-siRNA conjugate of Example 1 or the unconjugated Cy5.5-labeled siRNA of Example 1. After 9 hours, 18 hours, and 24 hours of incubation, cells were then fixated with 4% paraformaldehyde (PFA) for 10 min and washed twice with DPBS.
as §2

[2] = biological target: T2, PD-L1 expressed by CT26.CL25 cells (Mus musculus, UniProt Q9EP73); test: Binding of Cy5.5-labeled conjugate to PD-L1 on CT26.CL25 cells (fluorescence microscopy); settings: 200 nM, 30 minutes at 4° C., no antibody pre-treatment
T2 construct: PD-L1 expressed by CT26.CL25 cells; endogenous in cells; host or cells: CT26.CL25 cells
Method: as §1, with “PD-L1” for “EGFR”, “1” for “6”, “CT26.CL25” for “A549”, “CT26.CL25 cells that either had, or had not, been pre-treated with an anti-PD-L1 antibody.” for “A549 cells.”, “anti-PD-L1” for “anti-EGFR”, “1.” for “6.”
Here, 2 ml of CT26.CL25 cells (at 5×10^6 cells/ml) were seeded into each of four dishes. 24 hours after seeding, and one hour before treatment with the conjugate of Example 1, one dish was pre-treated with 1 ml of anti-PD-L1 antibody (InVivoMAb anti-mouse PD-L1, BioXCell Cat. #BE0101) at 1 mg/ml. After incubation with the antibody, the pre-treated cells were incubated with 1 ml (200 nM) of the conjugate of Example 1 for 30 minutes at 4° C. At the same time, a dish that had not been pre-treated was similarly incubated with the conjugate of Example 1, and another dish that had not been pre-treated was similarly incubated with the unconjugated anti-PD-L1 siRNA of Example 1.
Cells were then fixated with 4% paraformaldehyde (PFA) for 10 min, then washed twice with DPBS. Nuclei were then stained using Hoechst 33342 (blue of FIG. 2) and the cells were examined for Cy5.5 fluorescence (red of FIG. 2).

T2 sequence (Q9EP73 19-290): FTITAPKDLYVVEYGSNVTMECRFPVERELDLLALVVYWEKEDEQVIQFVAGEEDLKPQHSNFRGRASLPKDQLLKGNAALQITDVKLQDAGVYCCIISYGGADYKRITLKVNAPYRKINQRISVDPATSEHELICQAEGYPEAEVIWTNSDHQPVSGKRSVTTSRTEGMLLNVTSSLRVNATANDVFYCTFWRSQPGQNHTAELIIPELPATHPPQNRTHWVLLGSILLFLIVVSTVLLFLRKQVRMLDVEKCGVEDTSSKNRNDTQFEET

| Substance | YOYO-1 staining on cells (binding to EGFR) [1] | Internalization (Cy5.5 fluorescence) (B16F10 cells) | Internalization (Cy5.5 fluorescence) (CT26.CL25 cells) | Cy5.5 fluorescence on cells (binding to cell-surface PD-L1) [2] | Cy5.5 fluorescence on cells (binding to cell-surface PD-L1) ([2]; listed as unconjugated Cy5.5-labeled siRNA) |
| --- | --- | --- | --- | --- | --- |
| siRNA: anti-EGFR siRNA: sense AUAGGCAUUGGUGAAUUUAAAGAdCdA-[DBCO] (SEQ ID NO:120), antisense UGUCUUUAAAUUCACCAAUGCCUAUGC (SEQ ID NO:121) (sense AUAGGCAUUGGUGAAUUUAAAGACA; sense: sugars from the 5' end r23 d2, 3' {DBCO}, backbone not given here; antisense: RNA, backbone not given here; sense 3' DBCO clicked to azide EGFR-binding peptide) [reference compound] | no YOYO-1 staining |  |  |  |  |
| unconjugated Cy5.5-labeled siRNA of Example 1: anti-PD-L1 siRNA: sense GACUCAAGAUGGAACCUGAdTdT-[DBCO] (SEQ ID NO:12), antisense dTdTCUGAGUUCUACCUUGGACU-Cy5.5 (SEQ ID NO:13) (sense GACUCAAGAUGGAACCUGATT; antisense TTCUGAGUUCUACCUUGGACU; dTdT overhangs, DBCO, Cy5.5 label, chemistry not fully specified; one strand is listed 3' to 5') [reference compound] |  | significantly less Cy5.5 fluorescence | significantly less Cy5.5 fluorescence | very low levels of Cy5.5 fluorescence | little to no Cy5.5 fluorescence |
